# Laboratory results as given in patent publication US20220030868A1, “FUNGICIDAL HALOMETHYL KETONES AND HYDRATES” (FMC CORPORATION, priority 2018, published 2022).
# How the values were obtained:
# [1] = system: Puccinia recondita f. sp. tritici; assay: Test B: test suspension sprayed on wheat seedlings one day before inoculation with Puccinia recondita f. sp. tritici spores (wheat leaf rust), disease rating; type: in vivo; conditions: 100 = 100% disease control, 0 = no control
# Text: General protocol for preparing test suspensions for Tests A-C: the test compounds were first dissolved in acetone in an amount equal to 3% of the final volume and then suspended at the desired concentration (in ppm) in acetone and purified water (50/50 mix by volume) containing 250 ppm of the surfactant PEG400 (polyhydric alcohol esters). The resulting test suspensions were then used in Tests A-C. The test solution was sprayed to the point of run-off on wheat seedlings. The following day the seedlings were inoculated with a spore suspension of Puccinia recondita f. sp. tritici (the causal agent of wheat leaf rust) and incubated in a saturated atmosphere at 20° C. for 24 h, and then moved to a growth chamber at 20° C. for 6 days, after which time disease ratings were made. Results for Tests A-C are given in Table A. In the Table, a rating of 100 indicates 100% disease control and a rating of 0 indicates no disease control (relative to the controls). An asterisk “*” or a double asterisk “**” next to the rating value indicates a 50 ppm or 10 ppm test suspension was used, respectively. A dash (-) indicates the compound was not tested.
# Phakopsora pachyrhizi = assay: Test A: test suspension sprayed on soybean seedlings one day before inoculation with Phakopsora pachyrhizi spores (Asian soybean rust), visual disease rating; type: in vivo; conditions: 100 = 100% disease control, 0 = no control; for pest or weed control at 50 ppm / pest or weed control at 10 ppm: Phakopsora pachyrhizi
# Text: General protocol for preparing test suspensions for Tests A-C: the test compounds were first dissolved in acetone in an amount equal to 3% of the final volume and then suspended at the desired concentration (in ppm) in acetone and purified water (50/50 mix by volume) containing 250 ppm of the surfactant PEG400 (polyhydric alcohol esters). The resulting test suspensions were then used in Tests A-C.
# The test solution was sprayed to the point of run-off on soybean seedlings. The following day the seedlings were inoculated with a spore suspension of Phakopsora pachyrhizi (the causal agent of Asian soybean rust) and incubated in a saturated atmosphere at 22° C. for 24 h, and then moved to a growth chamber at 22° C. for 8 days, after which time visual disease ratings were made.
# Results for Tests A-C are given in Table A. In the Table, a rating of 100 indicates 100% disease control and a rating of 0 indicates no disease control (relative to the controls). An asterisk “*” or a double asterisk “**” next to the rating value indicates a 50 ppm or 10 ppm test suspension was used, respectively. A dash (-) indicates the compound was not tested.
Compound,Test B rating (disease control) ([1]; 10 ppm test suspension),Test A rating (disease control) (Phakopsora pachyrhizi; 10 ppm test suspension),further results
CCO/C(=C\Oc1ccc(Cn2cncn2)cc1)C(F)(F)F [Compound 157],9%,0%,–
O=Cc1ccc(OCC(O)(O)C(F)(F)F)cc1 [Compound 177],–,–,Test B rating (disease control) ([1]; 50 ppm test suspension): 89%; Test A rating (disease control) (Phakopsora pachyrhizi; 50 ppm test suspension): 100%
CCOC(=O)c1cnn(Cc2ccc(OCC3(C(F)(F)F)OC(=O)[C@@H](C)O3)cc2)c1 (stereo partly shown) [Compound 187],74%,93%,–
N#Cc1cnn(Cc2ccc(OCC(O)(O)C(F)(F)F)cc2)c1 [Compound 206],–,–,Test B rating (disease control) ([1]; 50 ppm test suspension): 98%; Test A rating (disease control) (Phakopsora pachyrhizi; 50 ppm test suspension): 100%
O=C(c1csc(Cc2ccc(OCC(O)(O)C(F)(F)F)cc2)n1)N1CCC1 [Compound 215],55%,80%,–
COCCNC(=O)c1csc(Cc2ccc(OCC(O)(O)C(F)(F)F)cc2)n1 [Compound 223],0%,75%,–
CCOC(=O)c1cnn(Cc2ccc(OC(F)(F)C(O)(O)C(F)(F)F)cc2)c1 [Compound 227],55%,99%,–
"COC(=O)c1ccc(OCC(O)(O)C(F)(F)F)cc1 [Compound 229, methyl 4-(3,3,3-trifluoro-2,2-dihydroxypropoxy)phenylcarboxylate]",–,–,pest or weed control at 50 ppm ([1]; 50 ppm test suspension): 100%; pest or weed control at 50 ppm (Phakopsora pachyrhizi; 50 ppm test suspension): 99%
"CCOC(=O)c1ccn(Cc2ccc(O/C=C(\OCC)C(F)(F)F)cc2)n1 [Compound 231, ethyl 1-[[4-[[(1Z)-2-ethoxy-3,3,3-trifluoro-1-propen-1-yl]oxy]phenyl]methyl]-1H-pyrazole-3-carboxylate]",–,–,pest or weed control at 10 ppm ([1]; 10 ppm test suspension): 0%; pest or weed control at 10 ppm (Phakopsora pachyrhizi; 10 ppm test suspension): 100%
CCOC(=O)c1ccn(Cc2ccc(OCC(O)(O)C(F)(F)F)cc2)n1 [Compound 233],–,–,Test B rating (disease control) ([1]; 50 ppm test suspension): 96%; Test A rating (disease control) (Phakopsora pachyrhizi; 50 ppm test suspension): 100%
CCOC(=O)c1ccnn1Cc1ccc(OCC(O)(O)C(F)(F)F)cc1 [Compound 234],–,–,Test B rating (disease control) ([1]; 50 ppm test suspension): 92%; Test A rating (disease control) (Phakopsora pachyrhizi; 50 ppm test suspension): 100%
O=C(NCC1CC1)c1cnc(Cc2ccc(OCC(O)(O)C(F)(F)F)cc2)o1 [Compound 247],0%,13%,–
O=C(NCC1CC1)c1cnc(Cc2ccc(OCC3(C(F)(F)F)OCCO3)cc2)o1 [Compound 248],0%,71%,–
O=C(NCC1CC1)c1cnc(Cc2ccc(OCC(O)(O)C(F)(F)F)cc2)s1 [Compound 256],0%,73%,–
O=C(NCC(F)(F)F)c1cnc(Cc2ccc(OCC3(C(F)(F)F)OCCO3)cc2)o1 [Compound 257],0%,54%,–
O=C(NCC1CC1)c1cnc(Cc2ccc(OCC3(C(F)(F)F)OCCO3)cc2)s1 [Compound 259],0%,25%,–
CCO/C(=C\Oc1ccc(Cn2ncnc2SC)cc1)C(F)(F)F [Compound 260],0%,0%,–
CCO/C(=C\Oc1ccc(Cn2cnc(SC)n2)cc1)C(F)(F)F [Compound 261],0%,0%,–
"CCOC(=O)c1cnn(Cc2ccc(OCC3(C(F)(F)F)OCCO3)c(F)c2)c1 [Compound 263, ethyl 1-[[3-fluoro-4-[[2-(trifluoromethyl)-1,3-dioxolan-2-yl]methoxy]phenyl]methyl]-1H-pyrazole-4-carboxylate]",–,–,pest or weed control at 10 ppm ([1]; 10 ppm test suspension): 0%; pest or weed control at 10 ppm (Phakopsora pachyrhizi; 10 ppm test suspension): 100%
"CCOC(=O)c1cnn(Cc2cccc(OCC(O)(O)C(F)(F)F)c2)c1 [Compound 266, ethyl 1-[[3-(3,3,3-trifluoro-2,2-dihydroxypropoxy)phenyl]methyl]-1H-pyrazole-4-carboxylate]",–,–,pest or weed control at 50 ppm ([1]; 50 ppm test suspension): 74%; pest or weed control at 50 ppm (Phakopsora pachyrhizi; 50 ppm test suspension): 86%
O=C(NCC(F)(F)F)c1cnc(Cc2ccc(OCC(O)(O)C(F)(F)F)cc2)o1 [Compound 274],0%,48%,–
O=C(NCC(F)(F)F)c1cnc(Cc2ccc(OCC3(C(F)(F)F)OCCO3)cc2)s1 [Compound 275],0%,0%,–

Compound,Test B rating (disease control) ([1]; 10 ppm test suspension),Test A rating (disease control) (Phakopsora pachyrhizi; 10 ppm test suspension),further results
O=C(NCC(F)(F)F)c1cnc(Cc2ccc(OCC(O)(O)C(F)(F)F)cc2)s1 [Compound 277],45%,50%,–
O=[N+]([O-])c1ccc(OCC(O)(O)C(F)(F)F)cc1 [Compound 280],–,–,Test B rating (disease control) ([1]; 50 ppm test suspension): 100%; Test A rating (disease control) (Phakopsora pachyrhizi; 50 ppm test suspension): 100%
CCOC(=O)c1cnn(CCCc2ccc(OCC(O)(O)C(F)(F)F)cc2)c1 [Compound 286],55%,87%,–
O=C(NCC(F)F)c1cnc(Cc2ccc(OCC(O)(O)C(F)(F)F)cc2)s1 [Compound 295],–,–,Test B rating (disease control) ([1]; 50 ppm test suspension): 80%; Test A rating (disease control) (Phakopsora pachyrhizi; 50 ppm test suspension): 99%
"CCOC(=O)c1cnn(COCc2ccc(O/C=C(\OCC)C(F)(F)F)cc2)c1 [Compound 297, ethyl 1-[[4-[[(1Z)-2-ethoxy-3,3,3-trifluoro-1-propen-1-yl]oxy]phenylmethoxy]methyl]-1H-pyrazole-4-carboxylate]",–,–,pest or weed control at 10 ppm ([1]; 10 ppm test suspension): 0%; pest or weed control at 10 ppm (Phakopsora pachyrhizi; 10 ppm test suspension): 100%
"CCO/C(=C\Oc1cccc(Cn2cc(C(=O)OC)cn2)c1)C(F)(F)F [Compound 330, methyl 1-[[3-[[(1Z)-2-ethoxy-3,3,3-trifluoro-1-propen-1-yl]oxy]phenyl]methyl]-1H-pyrazole-4-carboxylate]",–,–,pest or weed control at 10 ppm ([1]; 10 ppm test suspension): 0%; pest or weed control at 10 ppm (Phakopsora pachyrhizi; 10 ppm test suspension): 100%
"CCCOC(=O)c1cnn(Cc2cccc(O/C=C(\OCC)C(F)(F)F)c2)c1 [Compound 331, propyl 1-[[3-[[(1Z)-2-ethoxy-3,3,3-trifluoro-1-propen-1-yl]oxy]phenyl]methyl]-1H-pyrazole-4-carboxylate]",–,–,pest or weed control at 10 ppm ([1]; 10 ppm test suspension): 0%; pest or weed control at 10 ppm (Phakopsora pachyrhizi; 10 ppm test suspension): 100%
"CCOC(=O)c1cnn(COc2ccc(O/C=C(\OCC)C(F)(F)F)cc2)c1 [Compound 364, ethyl 1-[[4-[[(1Z)-2-ethoxy-3,3,3-trifluoro-1-propen-1-yl]oxy]phenoxy]methyl]-1H-pyrazole-4-carboxylate]",–,–,pest or weed control at 50 ppm ([1]; 50 ppm test suspension): 0%; pest or weed control at 50 ppm (Phakopsora pachyrhizi; 50 ppm test suspension): 100%
COC(=O)c1cnn(Cc2ccc(OCC3(C(F)(F)F)OCCO3)cc2)c1 [compound 13],0%,99%,–
CC(C)OC(=O)c1cnn(Cc2ccc(OCC3(C(F)(F)F)OCCO3)cc2)c1 [compound 14],0%,100%,–
C#CCOC(=O)c1cnn(Cc2ccc(OCC3(C(F)(F)F)OCCO3)cc2)c1 [compound 15],0%,100%,–
CCCCCCOC(=O)c1cnn(Cc2ccc(OCC3(C(F)(F)F)OCCO3)cc2)c1 [compound 16],0%,99%,–
O=C(OCc1ccc(Cl)c(Cl)c1)c1cnn(Cc2ccc(OCC3(C(F)(F)F)OCCO3)cc2)c1 [compound 17],0%,100%,–
O=C(OCc1ccc(F)c(F)c1)c1cnn(Cc2ccc(OCC3(C(F)(F)F)OCCO3)cc2)c1 [compound 18],0%,100%,–
CN(C)C(=O)C1=NOC(c2ccc(OCC3(C(F)(F)F)OCCO3)cc2)C1 (stereo not shown) [compound 22],0%,38%,–
CCS(=O)(=O)Cc1ccc(OCC2(C(F)(F)F)OCCO2)cc1 [compound 23],19%,0%,–
CS(=O)(=O)c1ccc(OCC2(C(F)(F)F)OCCO2)cc1 [compound 24],91%,81%,–
CN(C)S(=O)(=O)c1ccc(OCC2(C(F)(F)F)OCCO2)cc1 [compound 25],0%,0%,–
CCOC(=O)c1cnn(C(C)c2ccc(OCC3(C(F)(F)F)OCCO3)cc2)c1 (stereo not shown) [compound 26],0%,99%,–
COC(=O)NN=Cc1ccc(OCC2(C(F)(F)F)OCCO2)cc1 [compound 27],0%,0%,–
FC(F)(F)C1(COc2ccc(OCC3(C(F)(F)F)OCCO3)cc2)OCCO1 [compound 28],0%,0%,–
CCOC(=O)c1cnn(Cc2ccc(O/C=C(\OC)C(F)(F)F)cc2)c1 [compound 53],–,–,Test B rating (disease control) ([1]; 50 ppm test suspension): 67%; Test A rating (disease control) (Phakopsora pachyrhizi; 50 ppm test suspension): 100%
